Assay: UV absorption (UV/Vis spectrometer, standard USP 197U testing procedures)
Format: physicochemical
Description: UV absorption of glyceryl/acid or glycol/acid compounds and compositions containing the same can be determined by UV absorption assays that are generally known to those of ordinary skill in the art.

Molar Absorptivity (λ max 238 nm) (λ max 238 nm): 12065.7
Molar Absorptivity (λ max 307 nm) (λ max 307 nm): 6126.4
Compound: O=C(OCC(O)CO)c1ccccc1O (centres unmarked) [Glyceryl Mono-Salicylate]

Reference: patent US12285509B2, “Glyceryl and glycol acid compounds” (MARY KAY INC., priority 2006, dated 2025)
